Test system: cotton aphid (Aphis gossypii)
Assay: Foliar spray test on cotton seedlings infested with cotton aphid
Type: in vivo
Conditions: 72 h, read-out: Percent Mortality
Method: Insecticidal testing was conducted on specific compounds of the present invention. Specifically, the compounds referenced below were evaluated on 7-10 day old cotton seedlings infested with cotton aphid (Aphis gossypii). At least 12 hours prior to the test, leaf cuttings containing about 50 adult aphids were placed on leaves of each of duplicate cotton seedlings for each rate of application of compound of formula (I). Solutions of the compounds of formula (I) were prepared for testing by serial dilution of a standard solution comprised of an appropriate amount of the test material in a water/acetone solvent, which contained a small amount of a surfactant. Rates of application of compounds of formula (I) may range from about 1000 parts per million (ppm), or more, to about 3 ppm, or less, in a rate series of, for example, 1000 ppm, 300 ppm, 100 ppm, 30 ppm, 10 ppm, and 3 ppm. The solutions containing each rate of application of compounds of formula (I) were then sprayed to run-off to both the upper and lower portions of the leaves of the aphid-infested cotton seedlings. Each test of foliar-applied compounds of formula (I) included appropriate standard insecticides of known insecticidal activity and blank treatments to aid in assessing the insecticidal activity of the compounds of formula (I). Upon completion of the spraying with compounds of formula (I), the cotton seedlings were maintained in a growth chamber for a period of 72 hours. After this time, the seedlings were examined for dead insects. Insects were classified as dead if they were off-color or brown and desiccated. Upon completion of the evaluation of the test, the percent mortality of the cotton aphid for each rate of application of compounds of formula (I) was determined by comparison of the total number of dead insects to the total number of insects in the test.

Row | Structure (SMILES) | mortality at 1000 ppm | mortality at 100 ppm
1 | CCCCOc1ccc(CCOn2c(C)nc3c(F)cccc32)cc1Cl [Compound 246, 1-[2-(3-chloro-4-n-butoxyphenyl)ethoxy]-4-fluoro-2-methylbenzimidazole] | 100% | –
2 | CCCCOc1ccc(CCOn2c(C)nc3ccccc32)cc1Cl [Compound 163, 1-[2-(3-chloro-4-n-butoxyphenyl)ethoxy]-2-methylbenzimidazole] | 88% | –
3 | CCON=Cc1c(F)cc(CCOn2c(C)nc3ccccc32)cc1F [Compound 1323, 1-[2-(3,5-difluoro-4-ethoxyiminomethylphenyl)ethoxy]-2-methylbenzimidazole] | – | 97%
4 | CCCCOc1c(C)cc(CCNn2c(C)nc3cc(F)ccc32)cc1C [Compound 329, 1-[2-(3,5-dimethyl-4-n-butoxyphenyl)ethylamino]-5-fluoro-2-methylbenzimidazole] | – | 93%
5 | CCCCOc1ccc(C(C)(C)CNn2c(C)nc3ccccc32)cc1 [Compound 305, 1-[[2-methyl-2-(4-n-butoxyphenyl)propyl]amino]-2-methylbenzimidazole] | 96% | –
6 | Cc1nc2ccccc2n1OCCc1ccc(C(C)(C)C)c(Cl)c1 [Compound 135, 1-[2-[3-chloro-4-(1,1-dimethylethyl)phenyl]ethoxy]-2-methylbenzimidazole] | 86% | –
7 | CCCCOc1ccc(CCNn2c(=O)n(C)c3ccccc32)cc1Cl [Compound 417, 1-[2-(3-chloro-4-n-butoxyphenyl)ethylamino]-1,3-dihydro-3-methyl-2H-benzimidazol-2-one] | – | 3%
8 | CCCCOc1ccc(CCNn2c(C)nc3ccccc32)cc1Cl [Compound 314, 1-[2-(3-chloro-4-n-butoxyphenyl)ethylamino]-2-methylbenzimidazole] | 100% | –
9 | CCCCOc1c(C)cc(CCNn2c(C)nc3ccccc32)cc1C [Compound 320, 1-[2-(3,5-dimethyl-4-n-butoxyphenyl)ethylamino]-2-methylbenzimidazole] | – | 99%
10 | CCCCOc1ccc(CCNn2c(C)nc3c(F)cccc32)cc1Cl [Compound 323, 1-[2-(3-chloro-4-n-butoxyphenyl)ethylamino]-4-fluoro-2-methylbenzimidazole] | – | 96%
11 | CCCC(CCC)Oc1ccc(CCOn2c(C)nc3c(C)cccc32)cc1 [Compound 413, 1-[2-[4-(1-propylbutoxy)phenyl]ethoxy]-2,4-dimethylbenzimidazole] | – | 80%
12 | CCCOC(=O)c1ccc(CCNn2c(C)nc3ccccc32)cc1Cl [Compound 302, propyl 2-chloro-4-[2-(2-methylbenzimidazol-1-ylamino)ethyl]benzoate] | – | 84%
13 | CCCCOc1ccc(CCOn2c(C)nc(C)c2C)cc1Cl [Compound 9, 1-[2-(3-chloro-4-n-butoxyphenyl)ethoxy]-2,4,5-trimethylimidazole] | 100% | –
14 | CCCCOc1ccc(CCOn2c(C)nc3c(C)cccc32)cc1Cl [Compound 266, 1-[2-(3-chloro-4-n-butoxyphenyl)ethoxy]-2,4-dimethylbenzimidazole] | 100% | –
15 | CCCCOc1ccc(CCOn2nnc3ccccc32)cc1Cl [Compound 285, 1-[2-(3-chloro-4-n-butoxyphenyl)ethoxy]-1H-benzotriazole] | 31% | –
16 | CCCCOc1ccc(CCOn2c(C)nc3c2CCCC3)cc1Cl [Compound 244, 1-[2-(3-chloro-4-n-butoxyphenyl)ethoxy]-2-methyl-4,5,6,7-tetrahydrobenzimidazole] | 98% | –

— patent US20070269664A1, “Gas Barrier Laminated Film and Process for Producing the Same” (Sai Nippon Printing Co., Ltd., priority 2004, published 2007)
